Measured values: US7361263B2, “Water treatment apparatus and method” (Sanyo Electric Co., Ltd., priority 2002, dated 2008)
Values after ≈ are worked out from the molar mass of the structure shown. Like-named read-outs stand apart in the source and are kept apart here. Blank lines part the entries; values can stand above or below the molecule they belong to.

Experiments:
MOLT-4 cell = assay: Cytotoxicity (CC50) test, WST-8; type: cell-based, human
Source text: For the measurement of the number of cells, tetrazolium salt WST-8 (Cell Counting Kit-8 available as a kit) was employed as the chromophone. The basic principle of the cytotoxicity (CC50) test is set forth below. WST-8 is reduced by intracellular dehydrogenation enzyme to produce soluble formazan. Since the number of cells and the amount of generated formazan is linearly proportional, the number of cells can be readily measured by directly measuring the absorbancy of formazan at 450 nm. The specific procedure for measurement is set forth below. 180 μl of a culture medium was introduced into each of the wells in the range of rows A-D and columns 3-10 in a 96-well flat microtiter plate for diluting the agent. 240 μl of the sample taken at 0 hours from initiation of electrolysis was added to the well of row A, column 2 in the microtiter plate. 240 μl of the sample taken 2 hours from initiation of electrolysis was added to the well of row B, column 2. 240 μl of the sample taken 4 hours from initiation of electrolysis was added to the well of row C, column 2. 240 μl of the sample taken 6 hours from initiation of electrolysis was added to the well of row D, column 2. To produce respective columns of sample dilutions, samples of 60 μl each was taken from the above-described samples of 240 μl. These samples of 60 μl were sequentially added to the right side well to be sufficiently pipeted. This was conducted up to column 10. Two of U-bottom 96-well microtiter plates for cultivation were prepared, and 200 μl of PBS was applied to all the side-most wells. 100 μl of culture medium was introduced into each of the wells of rows B-G, columns 2-9. 150 μl of culture medium was introduced into the wells of columns 10 and 11. Then, 50 μl of cell suspension solution prepared to 5×10^6 cell/ml was introduced into each of the wells of rows B-G, columns 2-9 and column 11. The wells of column 10 were absent of cells. […] Then, the O.D. was measured at 450 nm and 620 nm using a microplate reader.

[1] = Gas chromatograph evaluation of decomposition of glutaral by electrolysis; type: physicochemical; conditions: six hours from initiation of electrolysis
[2] = system: Staphylococcus aureus (staphylococcus bacteria) 209P; assay: Sterilizing activity test of glutaral (MIC, small amount broth dilution, 60 minutes contact); type: cell-based
Method: (§1) The sterilizing activity of glutaral was evaluated based on MIC measurement by a small amount broth dilution method, which is the standard method of the Japanese Society of Chemotherapy. In the present example, the presence of bacillus by the bacterial number of survivals after a solution including bacillus was brought into contact with glutaral for a predetermined period of time (60 minutes) taking into account the fact that sterilization is neutralized when glutaral is mixed with the culture medium. The pharmaceutical stock solution disclosed in the standard method was replaced with the sample of the present example for testing. As the culture medium for measuring sensitivity, Cation Supplemented Mueller-Hinton Broth: CSMHB (obtained from EIKEN CHEMICAL CO., LTD.) was used. This CSMHB was dividedly-poured 90 μl each into a U-shaped bottom 96-well microplate. This is called Plate 1. The samples taken 0, 2, 4 and 6 hours from initiation of electrolysis described in the above 1. were prepared. In accordance with the method of [Example 1] recited in the additional rule of the standard method, a diluted solution of sterilized phosphate buffer (PBS) was produced for each sample. In the present example, the test was carried out at 1⁄2 the scale cited in the standard method. The containing amount of glutaral in the first tube was approximately 1000 μg/ml titer. The PBS dilution was dividedly-poured 0.1 ml each into another U-shaped microplate. This is called plate 2. In the present example, Staphylococcus aureus (staphylococcus bacteria) […] and Escherichia coli (coliform bacillus) NIHJ JC-2 strain were employed as the bacilli for testing sensitivity. The bacillus to be tested on an agar media cultured overnight was suspended to 0.5 Mc Farland (approximately 10^8 CFU/ml) and diluted by ten times (approximately 10^7 CFU/ml) with sterilized physiologic saline as the solution including bacillus for inoculation. The water to be treated and the solution including bacillus were inoculated and mixed 0.01 ml each in each well of Plate 1 within 15 minutes from preparation of the solution including bacillus. In Plate 1, a culture medium not containing the agent was poured into 1-2 wells as the control of growth of bacillus. At an elapse of 60 minutes from the mixing, 10 μl of the solution of plate 2 was each introduced into the same well of Plate 1. Then, cultivation was conducted for 18 to 24 hours at 35° C. The criteria of Positive Growth (+) and Inhibited Growth (-) after cultivation was determined as set forth below. Positive growth (+) was accepted when cloudiness was identified by the naked eye or a precipitate of at least 1 mm in diameter, or when two or more masses of precipitate, even though the diameter thereof is below 1 mm, was identified. Inhibited growth (-) was accepted when cloudiness by the naked eye was not identified, or when only one precipitate with a diameter below 1 mm was identified.

[3] = system: Escherichia coli (coliform bacillus) NIHJ JC-2; assay: as above; type: cell-based
Method: as §1

[4] = High performance liquid chromatograph analysis of electrolyzed amikacin sulfate solution; type: physicochemical
[5] = system: Staphylococcus aureus (staphylococcus bacteria) FDA 209P; assay: Test of antibacterial activity of amikacin sulfate (MIC, small amount broth dilution); type: cell-based
Method: (§2) In accordance with the MIC measurement by a small amount broth dilution method which is the standard method of the Japanese Society of Chemotherapy, the antibacterial activity of amikacin sulfate was evaluated. As the culture medium for measuring sensitivity, Cation Supplemented Mueller-Hinton Broth: CSMHB (obtained from EIKEN CHEMICAL CO., LTD.) was employed. This CSMHB was dividedly-poured 90 μl each into a U-shaped bottom 96-well microplate. Samples taken 0, 2, 4 and 6 hours from initiation of electrolysis described in the above 1. were prepared. A diluted solution was prepared in accordance with the standard method for each of these samples. […] The bacilli used in the present example are identical to the two types of bacilli used in Example 1, i.e. Staphylococcus aureus (staphylococcus bacteria) FDA […] and Escherichia coli (coliform bacillus) NIHJ JC-2. A solution including bacillus for inoculation similar to that of Example 1 was prepared. The solution including bacillus was inoculated approximately 0.005 ml each into each well of the plate set forth above within 15 minutes from preparation of the solution including bacillus. In this plate, a medium not containing the agent was poured into 1-2 wells as the control of the growth of the bacillus. Cultivation was conducted for 18 to 24 hours at 35° C. The evaluation method is identical to that employed in Example 1.

[6] = system: Escherichia coli (coliform bacillus) NIHJ JC-2; assay: as above; type: cell-based
Method: as §2

[7] = Ion chromatograph and total nitrogen analysis of electrolyzed amikacin sulfate solution; type: physicochemical; conditions: for Nitrogen Concentration Org-N: T-N minus NO3—N, NO2—N, NH4—N
[8] = 6 hours from initiation of electrolysis, calculated
[9] = electrolysis for 6 hours or more, from formula value
[10] = 6 hours from initiation of electrolysis

Compound: O=S([O-])([O-])=S.[Na+].[Na+] [sodium thiosulfate]
- contribution to cytotoxicity (MOLT-4 cell; in the electrolyzed samples, Molt-4 cells): almost no contribution to cytotoxicity

- GC peak area (RT 3.14 minutes) relative to sample of 0 hours [1]: 1/25
Compound: O=CCCCC=O [glutaral]
- minimum inhibitor concentration obtained from approximation formula 1 [2, 8]: 1150 µg/mL (≈ 11.5 mM)
- minimum inhibitor concentration relative to before electrolysis [2, 9]: approximately 1/18
- minimum inhibitor concentration ([2]; electrolyzing time 0 hours): 62.5 µg/mL (≈ 0.624 mM)
- relative value of the minimum inhibitor concentration (when preceding electrolysis is 1) ([2]; electrolyzing time 0 hours): 1
- minimum inhibitor concentration ([2]; electrolyzing time 2 hours): 125 µg/mL (≈ 1.25 mM)
- relative value of the minimum inhibitor concentration (when preceding electrolysis is 1) ([2]; electrolyzing time 2 hours): ½
- minimum inhibitor concentration ([2]; electrolyzing time 4 hours): 500 µg/mL (≈ 4.99 mM)
- relative value of the minimum inhibitor concentration (when preceding electrolysis is 1) ([2]; electrolyzing time 4 hours): ⅛
- minimum inhibitor concentration ([2]; electrolyzing time 6 hours): >1000 µg/mL
- relative value of the minimum inhibitor concentration (when preceding electrolysis is 1) ([2]; electrolyzing time 6 hours): < 1/16
- minimum inhibitor concentration obtained from approximation formula 2 [3, 8]: 4600 µg/mL (≈ 45.9 mM)
- minimum inhibitor concentration relative to before electrolysis [3, 9]: approximately 1/37
- minimum inhibitor concentration ([3]; electrolyzing time 0 hours): 31.25 µg/mL (≈ 0.312 mM)
- relative value of the minimum inhibitor concentration (when preceding electrolysis is 1) ([3]; electrolyzing time 0 hours): 1
- minimum inhibitor concentration ([3]; electrolyzing time 2 hours): 125 µg/mL (≈ 1.25 mM)
- relative value of the minimum inhibitor concentration (when preceding electrolysis is 1) ([3]; electrolyzing time 2 hours): ¼
- minimum inhibitor concentration ([3]; electrolyzing time 4 hours): >1000 µg/mL
- relative value of the minimum inhibitor concentration (when preceding electrolysis is 1) ([3]; electrolyzing time 4 hours): < 1/32
- minimum inhibitor concentration ([3]; electrolyzing time 6 hours): >1000 µg/mL
- relative value of the minimum inhibitor concentration (when preceding electrolysis is 1) ([3]; electrolyzing time 6 hours): < 1/32

- amikacin sulfate decomposed ([4]; 2 hours from initiation of electrolysis): approximately 90%
- amikacin sulfate decomposed ([4]; 4 hours and thereafter from initiation of electrolysis): approximately 99%
- Concentration of amikacin sulfate ([4]; electrolyzing time 0 hours (taken as 1,000 mg/L)): 1000 µg/mL
- Concentration of amikacin sulfate ([4]; electrolyzing time 2 hours, from peak area at retention time 4.2 minutes): 98.579 µg/mL
- Concentration of amikacin sulfate ([4]; electrolyzing time 4 hours, from peak area at retention time 4.2 minutes): 15.914 µg/mL
- Concentration of amikacin sulfate ([4]; electrolyzing time 6 hours, from peak area at retention time 4.2 minutes): 10.911 µg/mL
- minimum inhibitory concentration (MIC) ([5]; electrolyzing time 0 hours): 0.195 µg/mL
- relative value of the MIC (MIC at 0 hours set as 1) ([5]; electrolyzing time 0 hours): 1
- minimum inhibitory concentration (MIC) ([5]; electrolyzing time 2 hours): 1.56 µg/mL
- relative value of the MIC (MIC at 0 hours set as 1) ([5]; electrolyzing time 2 hours): ⅛
- minimum inhibitory concentration (MIC) ([5]; electrolyzing time 4 hours): 6.25 µg/mL
- relative value of the MIC (MIC at 0 hours set as 1) ([5]; electrolyzing time 4 hours): 1/32
- minimum inhibitory concentration (MIC) ([5]; electrolyzing time 6 hours): 100 µg/mL
- relative value of the MIC (MIC at 0 hours set as 1) ([5]; electrolyzing time 6 hours): 1/512
- minimum inhibitory concentration (MIC) ([6]; 6 hours from initiation of electrolysis, as tested): > 100 µg/mL
- minimum inhibitory concentration (MIC) ([6]; electrolyzing time 0 hours): 3.125 µg/mL
- relative value of the MIC (MIC at 0 hours set as 1) ([6]; electrolyzing time 0 hours): 1
- minimum inhibitory concentration (MIC) ([6]; electrolyzing time 2 hours): 12.5 µg/mL
- relative value of the MIC (MIC at 0 hours set as 1) ([6]; electrolyzing time 2 hours): ¼
- minimum inhibitory concentration (MIC) ([6]; electrolyzing time 4 hours): 50 µg/mL
- relative value of the MIC (MIC at 0 hours set as 1) ([6]; electrolyzing time 4 hours): 1/16
- minimum inhibitory concentration (MIC), calculated based on formula (4) ([6]; electrolyzing time 6 hours, calculated): 664 µg/mL
- relative value of the MIC (MIC at 0 hours set as 1) ([6]; electrolyzing time 6 hours, from calculated MIC): 1/212
- Nitrate nitrogen (NO3—N) share of the total nitrogen (T-N) [7, 10]: approximately 50%
- ammonia nitrogen (NH4—N) share of the total nitrogen (T-N) [7, 10]: approximately 50%
- Nitrogen Concentration NH4—N ([7]; electrolyzing time 0 hours): 0 mg/L
- Nitrogen Concentration NO2—N ([7]; electrolyzing time 0 hours): 0 mg/L
- Nitrogen Concentration NO3—N ([7]; electrolyzing time 0 hours): 0.22 mg/L
- Nitrogen Concentration T-N ([7]; electrolyzing time 0 hours): 80.1 mg/L
- Nitrogen Concentration Org-N ([7]; electrolyzing time 0 hours): 79.88 mg/L
- Nitrogen Concentration NH4—N ([7]; electrolyzing time 1 hour): 4.18 mg/L
- Nitrogen Concentration NO2—N ([7]; electrolyzing time 1 hour): 0 mg/L
- Nitrogen Concentration NO3—N ([7]; electrolyzing time 1 hour): 1 mg/L
- Nitrogen Concentration Org-N ([7]; electrolyzing time 1 hour): 25.52 mg/L
- Nitrogen Concentration NH4—N ([7]; electrolyzing time 2 hours): 9.06 mg/L
- Nitrogen Concentration NO2—N ([7]; electrolyzing time 2 hours): 0 mg/L
- Nitrogen Concentration NO3—N ([7]; electrolyzing time 2 hours): 2.39 mg/L
- Nitrogen Concentration T-N ([7]; electrolyzing time 2 hours): 29.65 mg/L
- Nitrogen Concentration Org-N ([7]; electrolyzing time 2 hours): 18.20 mg/L
- Nitrogen Concentration NH4—N ([7]; electrolyzing time 3 hours): 10.93 mg/L
- Nitrogen Concentration NO2—N ([7]; electrolyzing time 3 hours): 0 mg/L
- Nitrogen Concentration NO3—N ([7]; electrolyzing time 3 hours): 4.21 mg/L
- Nitrogen Concentration T-N ([7]; electrolyzing time 3 hours): 32.17 mg/L
- Nitrogen Concentration Org-N ([7]; electrolyzing time 3 hours): 17.03 mg/L
- Nitrogen Concentration NH4—N ([7]; electrolyzing time 4 hours): 13.43 mg/L
- Nitrogen Concentration NO2—N ([7]; electrolyzing time 4 hours): 0 mg/L
- Nitrogen Concentration NO3—N ([7]; electrolyzing time 4 hours): 8.6 mg/L
- Nitrogen Concentration T-N ([7]; electrolyzing time 4 hours): 32.75 mg/L
- Nitrogen Concentration Org-N ([7]; electrolyzing time 4 hours): 10.72 mg/L
- Nitrogen Concentration NH4—N ([7]; electrolyzing time 5 hours): 16 mg/L
- Nitrogen Concentration NO2—N ([7]; electrolyzing time 5 hours): 0 mg/L
- Nitrogen Concentration NO3—N ([7]; electrolyzing time 5 hours): 11.82 mg/L
- Nitrogen Concentration T-N ([7]; electrolyzing time 5 hours): 33.04 mg/L
- Nitrogen Concentration Org-N ([7]; electrolyzing time 5 hours): 5.22 mg/L
- Nitrogen Concentration NH4—N ([7]; electrolyzing time 6 hours): 17.84 mg/L
- Nitrogen Concentration NO2—N ([7]; electrolyzing time 6 hours): 0 mg/L
- Nitrogen Concentration NO3—N ([7]; electrolyzing time 6 hours): 16.94 mg/L
- Nitrogen Concentration T-N ([7]; electrolyzing time 6 hours): 32.27 mg/L
- Nitrogen Concentration Org-N ([7]; electrolyzing time 6 hours): -2.51 mg/L
Compound: NCC[C@H](O)C(=O)N[C@@H]1C[C@H](N)[C@@H](O[C@H]2O[C@H](CN)[C@@H](O)[C@H](O)[C@H]2O)[C@H](O)[C@H]1O[C@H]1O[C@H](CO)[C@@H](O)[C@H](N)[C@H]1O.O=S(=O)(O)O.O=S(=O)(O)O [amikacin sulfate, Amikacin sulfate]

Compound: OCl [hypochlorous acid]
- contribution to cytotoxicity (MOLT-4 cell): almost no contribution to cytotoxicity
